For orientation: Ki means the dissociation constant of the complex between target and ligand, obtained from inhibition or displacement. Lower therefore signals a stronger hold on the target.

Molecules are shown by their SMILES.

The values below come from US20130143905A1, “NOVEL ANTAGONISTS FOR CCR2 AND USES THEREOF” (BOEHRINGER INGELHEIM INTERNATIONAL GMBH, priority 2009, published 2013).

The assay concerns the target T1, CCR2 (Homo sapiens, UniProt P41597).
T1 construct: Membranes were prepared from THP-1 cells; endogenous in cells; host or cells: THP-1 (human acute monocytic leukaemia cells), membrane preparation
T1 sequence (P41597 1-360 isoform P41597-2): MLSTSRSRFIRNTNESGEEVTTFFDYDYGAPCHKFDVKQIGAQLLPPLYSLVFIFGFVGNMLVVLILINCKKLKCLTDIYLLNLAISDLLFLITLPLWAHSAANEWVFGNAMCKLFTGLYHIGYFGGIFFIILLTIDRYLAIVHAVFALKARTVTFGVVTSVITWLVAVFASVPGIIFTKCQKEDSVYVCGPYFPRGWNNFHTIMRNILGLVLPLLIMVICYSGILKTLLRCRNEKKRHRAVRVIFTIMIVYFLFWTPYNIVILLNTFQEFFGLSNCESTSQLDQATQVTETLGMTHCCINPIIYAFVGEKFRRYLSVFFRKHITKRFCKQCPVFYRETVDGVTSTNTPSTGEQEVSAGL
The experiment in a line: CCR2 receptor membrane binding assay ([125I]MCP-1, THP-1 membranes, SPA beads). Particulars: THP-1 cell membranes, [125I]MCP-1 displacement, dissociation constant hKi. How it is done: The above exemplary substances have been tested for binding to CCR2 using a binding assay as outlined herein below:
THP-1 cells (human acute monocytic leukaemia cells) were cultured under standardized conditions at 37° C. and 5% CO2 in a humidified incubator. THP-1 cells were cultivated in RPMI 1640 medium (Gibco 21875) containing 1% MEM-NEAA (Gibso 11140) 2 mM L-glutamine, 1.5 g/L sodium bicarbonate, 4.5 g/L glucose, 10 mM HEPES and 1.0 mM sodium pyruvate, 90%; 10% fetal calf serum (FCS Gibco 10500-064).
Membranes were prepared from THP-1 cells. THP-1 cells were centrifuged at 300×g at 4° C. for 10 min. The cell pellet was resuspendet in Phosphate Buffer Saline (PBS, including 10 μM Pefabloc and a protease inhibitor mix ‘complete’, Boehringer Mannheim (1 tablet/50 ml)), to a concentration of […]. The membrane preparation was performed by disrupting the cells by nitrogen […] (at 50 bar, for 1 h) in a “Nitrogen Bombe” (Parr Instrument). Cell debris was removed by centrifugation (800×g at 4° C., 1 min). The supernatant was centrifuged at 80000×g, 4° C. for 30 min to sediment the cell membranes. Usually 50 mg of protein (Bradford assay) were yielded from 1×10E9 cells. The membranes were resuspendet in 25 mM HEPES, 25 mM MgCl2, 1 mM CaCl2, 10% Glycerine for storage in aliquots at −80° C. in 25 mM HEPES, 25 mM MgCl2, 1 mM CaCl2, 10% Glycerine and stored at −80° C.
Perkin Elmer NEX 332 Jod 125 MCP-1, Stock: 2200 Ci/mmol solved in 2000 μl assay buffer, stored at −20° C. THP-1 membrane were adjusted with 25 mM HEPES, pH 7.2; 5 mM MgCl2; 0.5 mM CaCl2; 0.2% BSA assay buffer to a concentration of 2.5 μg/15 μl. Amersham Biosciences PVT-WGA Beads (RPNQ0001) were adjusted with assay buffer to a concentration of 0.24 mg/30 μl. For preparation of the membrane-bead-suspension membranes and beads were incubated for 30 min at RT under rotation (60 rpm) with a ratio of 1:2. Test compounds dissolved in 100% DMSO to a concentration of 10 mM and are further diluted with 100% DMSO to 1 mM. All additional compound dilutions were obtained with assay buffer, final 1% DMSO. Compounds, membrane-bead-suspension and [125I]MCP-1 (ca. 25000 cpm/10 μl) were incubated. Bound radioactivity was determined by scintillation counter after 8 h. Determination of affinity of test compounds (dissociation constant hKi) is calculated by iterative fitting of experimental data using the “easy sys” program, which is based on law of mass action (Schittkowski K. (1994), Numerische Mathematik, Vol. 68, 129-142).
In the case of `COc1c(NC[C@H]2CCC[C@@H](c3ccccc3)C2)ncnc1C(=O)N1CCC(N(C)C2CCOCC2OC)CC1` (some centres unmarked) [Example 14], the Ki amounted to 16 nM.

In the case of `COc1c(NC[C@@H]2CCC[C@H](c3ccc(Cl)cc3)O2)ncnc1C(=O)N1CCC(N[C@H]2CCOC[C@H]2OC)CC1` [Example 10d], the Ki worked out at 120 nM. Under `COc1c(NC[C@H]2CCC[C@@H](c3cccc(C)c3)O2)ncnc1C(=O)N1CCC(N[C@@H]2CCOC[C@@H]2OC)CC1` [Example 9] stands 25 nM. Take `COc1c(NC[C@@H]2CCC[C@H](c3ccc(Cl)cc3)O2)ncnc1C(=O)N1CCC(N[C@@H]2CCOC[C@@H]2OC)CC1` [Example 10b]: the affinity, expressed as Ki, was 162 nM. `COc1c(NC[C@H]2CCC[C@@H](c3ccc(Cl)cc3)O2)ncnc1C(=O)N1CCC(N[C@@H]2CCOC[C@@H]2OC)CC1` [Example 10e] showed a Ki of 10 nM. In turn, `COc1c(NC[C@H]2CCC[C@@H](c3ccc(C)cc3)O2)ncnc1C(=O)N1CCC(N2CCC(N(C)S(C)(=O)=O)CC2)CC1` [Example 5] came in with a Ki of 84 nM.

With `CN(C1CCN(C2CCN(C(=O)c3ncnc(NC[C@H]4CCC[C@@H](c5ccccc5)C4)c3C3CC3)CC2)CC1)S(C)(=O)=O` [Example 1], the affinity corresponds to a Ki of 9 nM. Against the preceding compound, the Ki is about 9.3-fold lower. With `COc1c(NCC2CCCC(c3ccccc3)C2)ncnc1C(=O)N1CCC(N2CCC(N(C)S(C)(=O)=O)CC2)CC1` (centres unmarked) [Example 4], the Ki was determined as 15 nM. Consider `COc1c(NC[C@H]2CCC[C@@H](c3ccc(C)cc3)O2)ncnc1C(=O)N1CCC(N[C@@H]2CCOC[C@@H]2OC)CC1` [Example 6], for which the Ki stood at 18 nM. For `COc1c(NC[C@H]2CCC[C@@H](c3ccc(C)cc3)O2)ncnc1C(=O)N1CCC(N[C@H]2CCOC[C@H]2OC)CC1` [Example 7], the affinity corresponds to a Ki of 13 nM. `COc1c(NC[C@H]2CCC[C@@H](c3cccc(C)c3)O2)ncnc1C(=O)N1CCC(N2CCC(N(C)S(C)(=O)=O)CC2)CC1` [Example 8] registered a Ki of 73 nM. Next, `COc1c(NC[C@H]2CCC[C@@H](c3ccccc3)C2)ncnc1C(=O)N1CCC(N[C@H]2CCOC[C@H]2OC)CC1` [Example 12]: 5 nM. Consider `COc1c(NC[C@H]2CCC[C@@H](c3ccc(C(F)(F)F)cc3)O2)ncnc1C(=O)N1CCC(NC2CCOCC2F)CC1` (some centres unmarked) [Example 10l], for which affinity was put at a Ki of 4 nM. As for `COc1c(NC[C@H]2CCC[C@@H](c3ccc(C(F)(F)F)cc3)O2)ncnc1C(=O)N1CCC(N[C@@H]2CCOC[C@@H]2OC)CC1` [Example 10i], the affinity, expressed as Ki, was 3 nM.

Compound `COc1c(NC[C@H]2CCC[C@@H](c3ccc(C)cc3)O2)ccnc1C(=O)N1CCC(N[C@@H]2CCOC[C@@H]2OC)CC1` [Example 16] showed an inhibition constant Ki of 22 nM. `COc1c(NC[C@H]2CCC[C@@H](c3cccc(C)c3)O2)ncnc1C(=O)N1CCC(N[C@H]2CCOC[C@H]2OC)CC1` [Example 10] displayed an inhibition constant (Ki) of 19 nM. This Ki and that of the compound before are within 1.5-fold of each other. For `COc1c(NC[C@H]2CCC[C@@H](c3ccc(C)cc3)O2)ccnc1C(=O)N1CCC(N[C@H]2CCOC[C@H]2OC)CC1` [Example 15], the inhibition constant (Ki) turned out to be 13 nM.

`COc1c(NC[C@H]2CCC[C@@H](c3ccccc3)C2)ncnc1C(=O)N1CCC(NC2CCOCC2OC)CC1` (some centres unmarked) [Example 13] had a Ki of 5 nM. Consider `CN(C1CCN(C2CCN(C(=O)c3ncnc(NCc4ccc(C(C)(C)C)cc4)c3C3CC3)CC2)CC1)S(C)(=O)=O` [Example 2], for which the Ki was 82 nM. Against the preceding compound, the Ki is about 16-fold higher. Consider `COc1c(NC[C@H]2CCC[C@@H](c3ccc(OC(F)(F)F)cc3)O2)ncnc1C(=O)N1CCC(N[C@H]2CCOC[C@H]2OC)CC1` [Example 10j], for which the affinity corresponds to a Ki of 1 nM.

The compound `COc1c(NC[C@H]2CCC[C@@H](c3ccc(OC(F)(F)F)cc3)O2)ncnc1C(=O)N1CCC(N[C@@H]2CCOC[C@@H]2OC)CC1` [Example 10k] showed a Ki of 2 nM. Under `COc1c(NC[C@@H]2CCC[C@H](c3ccc(Cl)cc3)O2)ncnc1C(=O)N1CCC(N2CCC(N(C)S(C)(=O)=O)CC2)CC1` [Example 10c] stands 377 nM. Take `COc1c(NC[C@H]2CCC[C@@H](c3ccc(C(F)(F)F)cc3)O2)ncnc1C(=O)N1CCC(N[C@H]2CCOC[C@H]2OC)CC1` [Example 10h]: the affinity, expressed as Ki, was 1 nM. Regarding `COc1c(NCc2ccc(C(C)(C)C)cc2)ncnc1C(=O)N1CCC(N2CCC(N(C)S(C)(=O)=O)CC2)CC1` [Example 10a], the Ki worked out at 121 nM. `COc1c(NC[C@H]2CCC[C@@H](c3ccccc3)C2)ncnc1C(=O)N1CCC(N[C@@H]2CCOC[C@@H]2OC)CC1` [Example 11] gave a Ki of 12 nM. In turn, `COc1c(NC[C@H]2CCC[C@@H](c3ccccc3)C2)ncnc1C(=O)N1CCC(N2CCC(N(C)S(C)(=O)=O)CC2)CC1` [Example 3] registered a Ki of 5 nM. As to `COc1c(NC[C@H]2CCC[C@@H](c3ccc(OC(F)(F)F)cc3)O2)ncnc1C(=O)N1CCC(NC2CCOCC2F)CC1` (some centres unmarked) [Example 10m], the Ki stood at 1 nM. Compared with the last compound, the Ki is about 5-fold lower. `COc1c(NC[C@H]2CCC[C@@H](c3ccc(Cl)cc3)O2)ncnc1C(=O)N1CCC(N[C@H]2CCOC[C@H]2OC)CC1` [Example 10g] displayed a Ki of 7 nM. This Ki is about 7-fold higher than that of the compound before.

Take `COc1c(NC[C@H]2CCC[C@@H](c3ccc(Cl)cc3)O2)ncnc1C(=O)N1CCC(N2CCC(N(C)S(C)(=O)=O)CC2)CC1` [Example 10f]: the inhibitory constant (Ki) came out at 60 nM.
